From US20150148304A1, “Novel Peptides and Analogs for Use in the Treatment of Macrophage Activation Syndrome” (Soligenix, Inc., priority 2013, published 2015)
No end group written: not given here.

Columns and labels:
[1] = non-GLP pilot toxicology study, single IV administration, mouse; settings: in vivo, IV injection over 30 to 60 seconds, actual dose, read-out: maximum tolerated dose (MTD) of a single administration
Protocol: (§1) Two pilot and 2 definitive repeat-dose toxicity studies were conducted with RIVPA (SEQ ID NO. 5) in mice and cynomolgus monkeys using the intravenous (IV; slow bolus) route of administration.
These resolved within a few minutes without detectable residual effects.

[2] = GLP 14-day repeat-dose IV toxicity study in mice; assay type: in vivo, mouse
Protocol: as §1
The safety of multiple daily injections of RIVPA (SEQ ID NO. 5) has also been evaluated in GLP studies in mice and cynomolgus monkeys. In mouse, doses of 20, 60, or 90 mg/kg/day were given IV for 14 days. […] In survivors of all groups, there was no evidence of toxicity in any organ or abnormal biochemistry or hematology.
(§2) In the latter study, no effect on T-cell, B-cell or NK-cell counts was observed after 14 days of intravenous RIVPA (SEQ ID NO. 5) dosing in the NHP. […] Collectively, there is no indication of a potential for RIVPA (SEQ ID NO. 5) to cause immunotoxicity or non-specific immune activation. No hyperactivation or suppression of adaptive immune responses, or other impact on the phenotypes of cells associated with adaptive immunity, has been detected following RIVPA (SEQ ID NO. 5) administration.

[3] = GLP 14-day repeat-dose IV toxicity study in cynomolgus monkeys; assay type: in vivo
Protocol: as §1
RIVPA (SEQ ID NO. 5) at 20, 80, 160 mg/kg/day was given IV to cynomolgus monkeys for 14 days. […] In all cases, these clinical signs resolved within a few minutes. […] A dose level of 80 mg/kg/day was considered to be the No-Observed-Adverse-Effect-Level (NOAEL) for this study.
Overall, the NOAEL is considered to be 80 mg/kg/day for cynomolgus monkeys since transient clinical signs were limited to a single study and occurred in only 2 instances of the 98 administrations of the drug at this dose level.
as §2

[4] = distribution of radiolabelled RIVPA to the mouse CNS; assay type: in vivo; settings: dose levels of 20 or 90 mg/kg
Protocol: No effects of RIVPA (SEQ ID NO. 5) have been observed on the central nervous system (CNS) in any study at any dose level and little or no radiolabelled RIVPA (SEQ ID NO. 5) was found in the mouse CNS at dose levels of either 20 or 90 mg/kg.

mouse normal blood cells = experiment: proliferation of normal blood cells in vitro (mouse); assay type: cell-based
human normal blood cells = experiment: proliferation of normal blood cells in vitro (human); assay type: cell-based
[5] = tested on: primary human leukemia cells; experiment: proliferation of primary leukemia cells in vitro; assay type: cell-based
[6] = toxicology and PK studies in mice with alternate routes of administration; settings: mouse, in vivo, other: intraperitoneal or subcutaneous
[7] = Phase 1 study in healthy volunteers, pharmacokinetics; assay type: in vivo, human
From the text: Following IV administration in human subjects and consistent with findings in animal studies, RIVPA (SEQ ID NO. 5) is cleared from the circulation within minutes. […] Following the rapid decline, a slower elimination phase was observed. […] Maximum plasma concentrations and total exposure levels were dose-proportional and clearance of RIVPA (SEQ ID NO. 5) from the circulation was rapid, consistent with the mouse and NHP experience.
In light of the high clearance and short elimination half-life, accumulation following daily injection was not expected to occur.

[8] = molecular target: Sequestosome-1, also known as p62 (Homo sapiens, UniProt Q13501); settings: cited from earlier work
Chain of Sequestosome-1, also known as p62 (Q13501 whole entry): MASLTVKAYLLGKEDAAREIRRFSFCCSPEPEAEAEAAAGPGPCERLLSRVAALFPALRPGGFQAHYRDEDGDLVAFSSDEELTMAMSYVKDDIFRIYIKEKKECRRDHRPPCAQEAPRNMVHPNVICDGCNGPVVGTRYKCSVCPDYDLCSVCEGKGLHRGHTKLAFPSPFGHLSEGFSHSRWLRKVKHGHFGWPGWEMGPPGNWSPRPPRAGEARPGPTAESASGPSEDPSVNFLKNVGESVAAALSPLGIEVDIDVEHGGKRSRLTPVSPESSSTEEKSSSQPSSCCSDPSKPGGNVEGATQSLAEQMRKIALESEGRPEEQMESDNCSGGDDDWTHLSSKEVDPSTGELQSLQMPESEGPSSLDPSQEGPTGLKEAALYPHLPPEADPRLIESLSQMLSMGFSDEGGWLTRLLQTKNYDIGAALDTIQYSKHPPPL

In the case of “RIVPA-NH2 [RIVPA, L-arginyl-L-isoleucyl-L-valyl-L-prolyl-L-alanine-amide]”, the MTD [1] is reported as 88 mg/kg, the “adverse effects at 20 mg/kg” value ([2]; 20 mg/kg/day IV for 14 days, mouse) is reported as “No adverse effects were observed” and the “mortality at 60 mg/kg” value ([2]; 60 mg/kg/day IV for 14 days, mouse) is reported as “Lethality was also observed in 1 animal”. For the same substance, the “mortality at high dose” value ([2]; 90 mg/kg/day IV for 14 days, mouse) was “Deaths were observed”, the “immune-related organ weights, histopathology, hematology and clinical chemistry” value ([2]; mouse 14-day toxicity study) was “no changes were observed” and the “clinical signs at 160 mg/kg” value ([3]; 160 mg/kg/day IV for 14 days, cynomolgus monkeys, during and shortly after dosing) was “Transient decreased activity and partially closed eyes”. The “toxicity at 20 and 80 mg/kg/day” value ([3]; 20 and 80 mg/kg/day IV for 14 days, cynomolgus monkeys) was “did not result in any evidence of toxicity”, the “immune-related organ weights, histopathology, hematology and clinical chemistry” value ([3]; NHP 14-day toxicity study) was “no changes were observed” and the “T-cell, B-cell or NK-cell counts” value ([3]; after 14 days of intravenous dosing in the NHP) was “no effect”. The NOAEL at 14 days ([3]; cynomolgus monkey, in vivo, IV for 14 days, cynomolgus monkeys, read-out: No-Observed-Adverse-Effect-Level (NOAEL) for this study) was 80 mg/kg/day, the “overall NOAEL for cynomolgus monkeys” value ([3]; overall across studies, IV) was 80 mg/kg/day and the “radiolabelled RIVPA found in the mouse CNS” value [4] was “little or no”. For the same substance, the “proliferation of mouse normal blood cells” value (mouse normal blood cells) was “did not promote the proliferation”, the “proliferation of human normal blood cells” value (human normal blood cells) was “did not promote the proliferation” and the “proliferation of primary human leukemia cells” value [5] was “did not promote the proliferation”. The NOAEL [6] was over 200 mg/kg, the “pre-dose concentrations on Days 5, 6, 7 and Day 8” value ([7]; daily IV for 7 days, all subjects) was “below the lower limit of quantitation” and the Tmax ([7]; human, plasma, intravenous, after start of infusion, dose range 0.15 mg/kg to 8 mg/kg, read-out: mean time of maximum concentration (Tmax)) was 4 to 4.8 min. The “time after start of infusion for plasma levels to decrease to less than 10 percent of Cmax” value ([7]; single-dose phase, 4-minute IV infusion) was at most 9 min, the “maximum plasma concentrations and total exposure levels versus dose” value ([7]; single-dose phase, IV) was “dose-proportional” and the “binding to p62” value [8] was “binds”.
